We go through one compound from US20090142323A1, “METHODS FOR TREATING A DISORDER BY REGULATING GPRC6A” (priority 2007, published 2009).

In one assay the target is T1, GPRC6A (Mus musculus, UniProt Q8K4Z6).
T1 sequence (Q8K4Z6 21-928): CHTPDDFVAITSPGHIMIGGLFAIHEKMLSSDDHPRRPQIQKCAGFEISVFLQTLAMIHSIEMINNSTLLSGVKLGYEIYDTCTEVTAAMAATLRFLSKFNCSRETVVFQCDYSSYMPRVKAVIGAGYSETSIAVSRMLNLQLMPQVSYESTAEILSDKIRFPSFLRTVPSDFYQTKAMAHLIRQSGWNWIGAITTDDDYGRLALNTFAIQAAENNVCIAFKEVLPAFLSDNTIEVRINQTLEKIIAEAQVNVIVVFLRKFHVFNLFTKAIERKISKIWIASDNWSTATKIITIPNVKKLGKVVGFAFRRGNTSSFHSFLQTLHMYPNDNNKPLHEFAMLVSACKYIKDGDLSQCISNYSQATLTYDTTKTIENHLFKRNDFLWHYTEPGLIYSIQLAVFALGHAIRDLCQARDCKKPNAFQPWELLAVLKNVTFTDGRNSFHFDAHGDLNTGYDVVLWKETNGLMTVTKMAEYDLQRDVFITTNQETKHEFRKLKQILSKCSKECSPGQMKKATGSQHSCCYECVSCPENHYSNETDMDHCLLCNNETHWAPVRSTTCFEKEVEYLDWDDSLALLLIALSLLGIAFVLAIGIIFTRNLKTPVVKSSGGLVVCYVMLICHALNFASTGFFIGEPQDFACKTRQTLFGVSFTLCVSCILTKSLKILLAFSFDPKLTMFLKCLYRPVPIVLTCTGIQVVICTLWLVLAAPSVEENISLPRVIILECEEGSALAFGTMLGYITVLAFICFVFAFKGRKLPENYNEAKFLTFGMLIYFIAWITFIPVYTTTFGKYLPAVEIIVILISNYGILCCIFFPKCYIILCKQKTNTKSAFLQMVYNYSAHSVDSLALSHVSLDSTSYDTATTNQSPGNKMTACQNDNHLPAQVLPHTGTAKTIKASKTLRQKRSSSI
Description: [3H]testosterone binding to membrane fractions of HEK-293 cells. On the set-up: expressed in transfected cells. The procedure:
Membranes from HEK and HEK stably transfected with GPRC6A were prepared and stored at −80° C. The membrane preparations were diluted to 0.15-0.5 mg protein/ml in binding buffer (in mM: 20 HEPES, 100 NaCl, 6 MgCl2, 1 EDTA, and 1 EGTA) immediately before all binding assays. Total binding saturation curves were generated by incubating 250 μl of membrane preparation and 250 μl of [^3H]Testoterone (Testosterone-[1,2,6,7-3H(N)]; 1 mCi; Sigma, Chemicals, St. Louis, Mo.), dissolved in binding buffer (in mM: 20 HEPES, 100 NaCl, 6 MgCl2, 1 EDTA, and 1 EGTA) for final reaction concentrations ranging from 0.3 to 25 nM, for 40 min. After the 40-min incubation, the binding reactions were terminated by rapidly filtering 400 μl of the reaction over a presoaked Whatman, glass-fiber filter (pore size, 1 μm) to separate bound steroid from free steroid. The filter was immediately washed twice with 12.5 ml of wash buffer (PBS) and placed in a scintillation vial. Radioactivity was counted in a liquid scintillation counter (Beckman Instruments, Fullerton, Calif.). All steps of the binding assays were conducted at 4° C.

In another assay the test system is HEK-293 cells. Description: phospho-ERK in non-transfected HEK-293 control cells. The note with it: control HEK293, no GPRC6A. It is filed as cell-based, human. How it is done: Equal amounts of lysates were subjected to 10% SDS-PAGE, and phospho-ERK1/2 levels were determined by immunoblotting using antiphospho-ERK1/2 mitogen-activated protein kinase antibody (Cell Signaling Technology). […] An anti-peptide antibody was raised in a rabbit against a peptide ([…] (SEQ ID NO: 27)) corresponding to a sequence in the extracellular domain of mouse GPRC6A (in exon 1 of mouse GPRC6A gene) produced by Abgent (San Diego, Calif.). For phospho-ERK, the phospho-ERK1/2 levels were determined by immunoblotting using anti-phospho-ERK1/2 mitogen-activated protein kinase antibody (Cell Signaling Technology). Urinary β2-microglobulin was detected by rabbit polyclonal anti-β2-microglobulin antibody (Abcam Inc.). For aromatase expression analysis, the rabbit polyclonal anti-aromatase antibody (Abcam Inc.) and goat anti-rabbit IgG HRP secondary antibody (Santa Cruz Biotechnology Inc.) were used. Mouse anti-Actin antibody (Santa Cruz Biotechnology Inc.) was used for control protein loading.

`C[C@]12CC[C@H]3[C@@H](CCC4=CC(=O)CC[C@@]43C)[C@@H]1CC[C@@H]2O` [testosterone]: the figures for the “specific testosterone binding to plasma membranes” value on GPRC6A (HEK-293 cells transfected with GPRC6A) and at GPRC6A (untransfected cells) were “Significant amounts of specific testosterone binding” and “negligible specific binding”, respectively. In the assay with HEK-293 cells, the phospho-ERK response entry is given as “did not responded”.
